Data as given in patent US20230286973A1, “PROTEIN SECRETION INHIBITORS” (KEZAR LIFE SCIENCES, priority 2020, published 2023).

Assays:
[1] = tested on: PD1-ss+10aa/Gaussia Luciferase; test: Dox-Induced PD1-ss-Gluc Assay; type: cell-based; settings: 24 hr Dox induction; 293FRT/TO cells; read-out: 24 hr Dox Inducible PD1ssGluc 293FRT/TO: Mean IC50
How it was run: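 Gaussia luciferase fused downstream of the PD1 signal peptide plus 10 residues was expressed on doxycycline induction in stably transfected Flp-In 293 T-REx cells. Compounds were added with doxycycline and incubated at 37 °C, 5% CO2.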

[2] = tested on: TNFα-FL/Gaussia Luciferase; test: Dox Induced TNFα-FL-Gluc Assay; type: cell-based; settings: for IC50: 24 hr Dox induction, 293FRT/TO cells, read-out: 24 hr Dox Inducible TNFaFLGluc 293FRT/TO: Mean IC50; for 24 hr Dox Inducible TNFaFLGluc 293FRT/TO: TNF/PD1: ratio of TNFaFLGluc IC50 to PD1ssGluc IC50
How it was run: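 Hygromycin/blasticidin-selected Flp-In 293 T-REx cells, TNFα-FL/Gaussia luciferase fusion under T-REx control; overnight plating, then compound in DMSO/media with doxycycline at 37 °C, 5% CO2; stereo-undefined structures tested as mixtures.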

[3] = tested on: HER3-ss+4aa/Gaussia Luciferase; test: Dox-Induced Her3-ss-Gluc Assay; type: cell-based; settings: 24 hr Dox induction; 293FRT/TO cells; read-out: 24 hr Dox Inducible Her3(ss + 4)Gluc 293FRT/TO: Mean IC50
How it was run: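 Doxycycline-inducible HER3 signal sequence+4aa/Gaussia luciferase construct, stably integrated in Flp-In 293 T-REx cells; compound dilutions applied with doxycycline at 37° C., 5% CO2.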

[4] = tested on: IL-2-FL/Gaussia Luciferase; test: Dox Induced IL2-FL-Gluc Assay; type: cell-based; settings: for IC50: 24 hr Dox induction, 293FRT/TO cells, read-out: 24 hr Dox Inducible IL2FLGluc 293FRT/TO: Mean IC50; for 24 hr Dox Inducible IL2FLGluc 293FRT/TO: IL2/PD1: ratio of IL2FLGluc IC50 to PD1ssGluc IC50
How it was run: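 A hygromycin- and blasticidin-resistant 293 T-REx clone carrying inducible IL-2–Gaussia luciferase (full-length IL-2, residues 1-153) serves as the cell system. After overnight plating, the cells get test compounds together with doxycycline in DMSO/media and are incubated at 37° C, 5% CO2.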

[5] = tested on: multiple myeloma cell line NCI-H929; test: H929 Cell Viability Assay; type: cell-based, human; settings: Homo sapiens, NCI-H929, 48 h, NCI-H929 cells, Celltiter-Glo
How it was run: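 A 48-hour compound treatment of cells in 10% FBS RPMI medium was followed by luciferase-based viability quantification.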

[6] = tested on: multiple myeloma cell line U266B1; test: U266 Cell Viability Assay; type: cell-based, human; settings: Homo sapiens, U-266, 48 h, U266B1 cells, Celltiter-Glo
How it was run: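 After growth in serum-supplemented RPMI 1640, cells received serially diluted compound in DMSO/media and were kept 48 hours before a CellTiter-Glo luminescence readout.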

[7] = Liver Microsome Stability Assay (rat); settings: rat liver microsomes, with NADPH, 1.0 uM compound
Protocol: (§1) Stability of a compound was assessed in the presence of liver microsomes from various sources—mouse, rat, monkey and human liver microsomes. 1.0 uM compound, 0.4% DMSO in 0.1 M Potassium Phosphate with 1.0 mg/mL liver microsomes, were incubated at 37° C. with or without 1 mM NADPH. The samples were quenched at 0, and 30 minutes.

[8] = Liver Microsome Stability Assay (mouse); settings: mouse liver microsomes, with NADPH, 1.0 uM compound
Protocol: as §1

[9] = Liver Microsome Stability Assay (human); settings: human liver microsomes, with NADPH, 1.0 uM compound
Protocol: as §1

[10] = Liver Microsome Stability Assay (monkey); settings: monkey liver microsomes, with NADPH, 1.0 uM compound
Protocol: as §1

IC50 [1] [nM] | IC50 [2] [nM] | IC50 [3] [nM] | IC50 [4] [nM] | EC50 [5] [nM] | EC50 [6] [nM] | Liver Microsome Stability (Multiple Species): Rat - % Remaining after 30 min w/NADPH [7] [%] | Liver Microsome Stability (Multiple Species): Mouse - % Remaining after 30 min w/NADPH [8] [%] | Liver Microsome Stability (Multiple Species): Human - % Remaining after 30 min w/NADPH [9] [%] | Liver Microsome Stability (Multiple Species): Monkey - % Remaining after 30 min w/NADPH [10] [%] | Compound | 24 hr Dox Inducible TNFaFLGluc 293FRT/TO: TNF/PD1 [2] | 24 hr Dox Inducible IL2FLGluc 293FRT/TO: IL2/PD1 [4]
27.5 | 497 | 43.9 | 54 | 921 | > 25000 | 2.9 | 0.97 | 2.77 | 0.94 | O=C(CO)Nc1ccc(N2CCC[C@@H]2c2csc(NC(=O)c3cccn3Cc3ccnc(F)c3)n2)cc1 [Compound A141, (R)-1-((2-fluoropyridin-4-yl)methyl)-N-(4-(1-(4-(2-hydroxyacetamido)phenyl)pyrrolidin-2-yl)thiazol-2-yl)-1H-pyrrole-2-carboxamide] | 18 | 2
323 | 6870 | 660 | 963 | 16300 | > 25000 | 59.4 | 60.5 | 20.9 | 29.6 | O=C(Nc1nc([C@@H]2CCCN2c2ccc(C(F)(F)F)cc2)cs1)c1cccn1Cc1ccnc(F)c1 [Compound A142, (S)-1-((2-fluoropyridin-4-yl)methyl)-N-(4-(1-(4-(trifluoromethyl)phenyl)pyrrolidin-2-yl)thiazol-2-yl)-1H-pyrrole-2-carboxamide] | 21.3 | 3
71.9 | 316 | 106 | 109 | 469 | 3480 | 2.95 | 5.61 | 8.6 | 0.94 | CC(=O)N1CCC(Nc2ccc(N3CCC[C@@H]3c3csc(NC(=O)c4cccn4Cc4ccnc(F)c4)n3)cc2)CC1 [Compound A147, (R)-N-(4-(1-(4-((1-acetylpiperidin-4-yl)amino)phenyl)pyrrolidin-2-yl)thiazol-2-yl)-1-((2-fluoropyridin-4-yl)methyl)-1H-pyrrole-2-carboxamide] | 4.4 | 1.5
45.9 | 579 | 73 | 87.2 | 1660 | 11100 | 28.3 | 4.79 | 7.55 | 0.84 | CN(C)S(=O)(=O)N1CC(Oc2ccc(N3CCC[C@@H]3c3csc(NC(=O)c4cccn4Cc4ccnc(F)c4)n3)cc2)C1 [Compound A148, (R)-N-(4-(1-(4-((1-(N,N-dimethylsulfamoyl)azetidin-3-yl)oxy)phenyl)pyrrolidin-2-yl)thiazol-2-yl)-1-((2-fluoropyridin-4-yl)methyl)-1H-pyrrole-2-carboxamide] | 12.6 | 1.9

The remaining lines, values behind:

Compound | IC50 [1] [nM] | IC50 [2] [nM] | IC50 [3] [nM] | IC50 [4] [nM] | EC50 [5] [nM] | EC50 [6] [nM] | Liver Microsome Stability (Multiple Species): Rat - % Remaining after 30 min w/NADPH [7] [%] | Liver Microsome Stability (Multiple Species): Mouse - % Remaining after 30 min w/NADPH [8] [%] | Liver Microsome Stability (Multiple Species): Human - % Remaining after 30 min w/NADPH [9] [%] | Liver Microsome Stability (Multiple Species): Monkey - % Remaining after 30 min w/NADPH [10] [%] | 24 hr Dox Inducible TNFaFLGluc 293FRT/TO: TNF/PD1 [2] | 24 hr Dox Inducible IL2FLGluc 293FRT/TO: IL2/PD1 [4]
CC(=O)N1CCC(Oc2ccc(N3CCC[C@@H]3c3csc(NC(=O)c4cccn4Cc4ccnc(F)c4)n3)cc2Cl)CC1 [Compound A140, (R)-N-(4-(1-(4-((1-acetylpiperidin-4-yl)oxy)-3-chlorophenyl)pyrrolidin-2-yl)thiazol-2-yl)-1-((2-fluoropyridin-4-yl)methyl)-1H-pyrrole-2-carboxamide] | 13.9 | 361 | 9.88 | 33.7 | 418 | > 25000 | 12.8 | 16.1 | 14 | 8.54 | 25.9 | 2.4
CC(=O)N1CCC(Oc2ccc(N3CCC[C@@H]3c3csc(NC(=O)c4cccn4Cc4ccnc(F)c4)n3)c(Cl)c2)CC1 [Compound A143, (R)-N-(4-(1-(4-((1-acetylpiperidin-4-yl)oxy)-2-chlorophenyl)pyrrolidin-2-yl)thiazol-2-yl)-1-((2-fluoropyridin-4-yl)methyl)-1H-pyrrole-2-carboxamide] | 51.9 | 209 | 64.8 | 31.2 | 1010 | 11900 | 6.14 | 0.06 | 0.16 | 0.01 | 4.03 | 0.6
COC(=O)Nc1ccc(N2CCC[C@@H]2c2csc(NC(=O)c3cccn3Cc3ccnc(F)c3)n2)cc1 [Compound A144, methyl (R)-(4-(2-(2-(1-((2-fluoropyridin-4-yl)methyl)-1H-pyrrole-2-carboxamido)thiazol-4-yl)pyrrolidin-1-yl)phenyl)carbamate] | 0.36 | 5.9 | 0.81 | 1.33 | 15.9 | > 25000 | 34 | 20.2 | 36.4 | 10.7 | 16.3 | 3.7
CCOC(=O)Nc1ccc(N2CCC[C@@H]2c2csc(NC(=O)c3cccn3Cc3ccnc(F)c3)n2)cc1 [Compound A145, ethyl (R)-(4-(2-(2-(1-((2-fluoropyridin-4-yl)methyl)-1H-pyrrole-2-carboxamido)thiazol-4-yl)pyrrolidin-1-yl)phenyl)carbamate] | 0.31 | 7.51 | 0.83 | 1.11 | 13.5 | > 25000 | 46 | 25.1 | 41.5 | 18 | 24 | 3.6
CC(C)OC(=O)Nc1ccc(N2CCC[C@@H]2c2csc(NC(=O)c3cccn3Cc3ccnc(F)c3)n2)cc1 [Compound A146, isopropyl (R)-(4-(2-(2-(1-((2-fluoropyridin-4-yl)methyl)-1H-pyrrole-2-carboxamido)thiazol-4-yl)pyrrolidin-1-yl)phenyl)carbamate] | 0.97 | 20.6 | 2.47 | 2.56 | 39.3 | > 25000 | 54.1 | 34.8 | 49.5 | 21.6 | 21.1 | 2.6
